Laboratory results from patent US20180147196A1, “PYRIDIN-3-YL ACETIC ACID DERIVATIVES AS INHIBITORS OF HUMAN IMMUNODEFICIENCY VIRUS REPLICATION” (priority 2015, published 2018).
Where two headings read alike, the source gives them in different places.

System: NL-RLuc virus
Test: Inhibition of HIV replication (NL-RLuc virus in MT-2 cells, luciferase readout)
Type: cell-based
Conditions: Human immunodeficiency virus 1, MT2, 120 h
Text: Inhibition of HIV replication: A recombinant NL-RLuc proviral clone was constructed in which a section of the nef gene from NL4-3 was replaced with the Renilla Luciferase gene. This virus is fully infectious and can undergo multiple cycles of replication in cell culture. In addition, the luciferous reporter provides a simple and easy method for quantitating the extent of virus growth and consequently, the antiviral activity of test compounds. The plasmid pNLRLuc contains the proviral NL-Rluc DNA cloned into pUC18 at the Pvull site. The NL-RLuc virus was prepared by transfection of 293T cells with the plasmid pNLRLuc. Transfections were performed using the LipofectAMINE PLUS kit from Invitrogen (Carlsbad, Calif.) according to the manufacturer and the virus generated was titered in MT-2 cells. For susceptibility analyses, the titrated virus was used to infect MT-2 cells in the presence of compound, and after 5 days of incubation, cells were processed and quantitated for virus growth by the amount of expressed luciferase. Assay media was RPMI 1640 supplemented with 10% heat inactivated fetal bovine serum (FBS), 100 units/ml penicillin G/100 units/ml streptomycin, 10 mM HEPES buffer pH 7.55 and 2 mM L-glutamine. The results from at least 2 experiments were used to calculate the EC50 values. Luciferase was quantitated using the Dual Luciferase kit from Promega (Madison, Wis.). Susceptibility of viruses to compounds was determined by incubation in the presence of serial dilutions of the compound. The 50% effective concentration (EC50) was calculated by using the exponential form of the median effect equation where (Fa)=1/[1+(ED50/drug conc.)^m] (Johnson V A, Byington R T. Infectivity Assay. In Techniques in HIV Research. ed. Aldovini A, Walker BD. 71-76. New York: Stockton Press.1990). Activity equal to A refers to a compound having an EC50<100 nM, while B and C denote compounds having an EC50 between 100 nM and 1 uM (B) or >1 uM (C).

| SMILES | EC50 (read-out: Activity) [µM] | EC50 (read-out: EC50 μM) [µM] |
| --- | --- | --- |
| Cc1cc(N2CCC(C)(C)CC2)c([C@H](OC(C)(C)C)C(=O)O)c(C)n1 [Example 27, (S)-2-(tert-Butoxy)-2-(4-(4,4-dimethylpiperidin-1-yl)-2,6-dimethylpyridin-3-yl)acetic acid] | > 1 |  |
| C=Cc1c(C)nc(C)c([C@H](OC(C)(C)C)C(=O)O)c1N1CCC(C)(C)CC1 [Example 28, (S)-2-(tert-Butoxy)-2-(4-(4,4-dimethylpiperidin-1-yl)-2,6-dimethyl-5-vinylpyridin-3-yl)acetic acid] | 0.1 to 1 |  |
| CCc1c(C)nc(C)c([C@H](OC(C)(C)C)C(=O)O)c1N1CCC(C)(C)CC1 [Example 29, (S)-2-(tert-Butoxy)-2-(4-(4,4-dimethylpiperidin-1-yl)-5-ethyl-2,6-dimethylpyridin-3-yl)acetic acid] | < 0.1 | 0.068 |
| C/C=C/c1c(C)nc(C)c([C@H](OC(C)(C)C)C(=O)O)c1N1CCC(C)(C)CC1 [Example 30, (S,E)-2-(tert-Butoxy)-2-(4-(4,4-dimethylpiperidin-1-yl)-2,6-dimethyl-5-(prop-1-en-1-yl)pyridin-3-yl)acetic acid] | 0.1 to 1 |  |
| Cc1nc(C)c([C@H](OC(C)(C)C)C(=O)O)c(N2CCC(C)(C)CC2)c1C1CC1 [Example 31, (S)-2-(tert-Butoxy)-2-(5-cyclopropyl-4-(4,4-dimethylpiperidin-1-yl)-2,6-dimethylpyridin-3-yl)acetic acid] | 0.1 to 1 | 0.118 |
| Cc1ncc(C2=CCN(CCCc3ccc(F)cc3)CC2)c(N2CCC(C)(C)CC2)c1[C@H](OC(C)(C)C)C(=O)O [Example 32, (S)-2-(tert-Butoxy)-2-(4-(4,4-dimethylpiperidin-1-yl)-1′-(3-(4-fluorophenyl)propyl)-6-methyl-1′,2′,3′,6′-tetrahydro-[3,4′-bipyridin]-5-yl)acetic acid] | < 0.1 | 0.002 |
